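Cells were grown in 96-well plates and exposed to each compound for 48 hours at five concentrations; endpoints were interpolated linearly between bracketing concentrations, or set to the highest concentration if not reached. Abbreviation: GI50, concentration required for 50% inhibition of growth. The concentration for full growth arrest is given as TGI.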
Key:
Assay in all cases: inhibition of tumour cell growth, NCI panel, 48 h
SR leukemia = system: SR leukemia
SNB-19 CNS = system: SNB-19 CNS
SW-620 colon = system: SW-620 colon
HCC-2998 colon = system: HCC-2998 colon
UO-31 renal = system: UO-31 renal
HT29 colon = system: HT29 colon
EKVX NSCLC = system: EKVX NSCLC
OVCAR-8 ovarian = system: OVCAR-8 ovarian
OVCAR-3 ovarian = system: OVCAR-3 ovarian
U251 CNS = system: U251 CNS
SNB-75 CNS = system: SNB-75 CNS
OVCAR-4 ovarian = system: OVCAR-4 ovarian
COLO 205 colon = system: COLO 205 colon
RXF 393 renal = system: RXF 393 renal
NCI-H23 lung = system: NCI-H23 lung
SN12C renal = system: SN12C renal
K-562 leukemia = system: K-562 leukemia
UACC-62 melanoma = system: UACC-62 melanoma
TK-10 renal = system: TK-10 renal
HCT-15 colon = system: HCT-15 colon
BT-549 breast = system: BT-549 breast
HOP-92 NSCLC = system: HOP-92 NSCLC
SK-MEL-2 melanoma = system: SK-MEL-2 melanoma
UACC-257 melanoma = system: UACC-257 melanoma
PC-3 prostate = system: PC-3 prostate
MCF7 breast = system: MCF7 breast
SF-295 CNS = system: SF-295 CNS
MOLT-4 leukemia = system: MOLT-4 leukemia
SK-MEL-28 melanoma = system: SK-MEL-28 melanoma
LOX IMVI melanoma = system: LOX IMVI melanoma
HS 578T breast = system: HS 578T breast
T-47D breast = system: T-47D breast
SK-OV-3 ovarian = system: SK-OV-3 ovarian
HL-60(TB) leukemia = system: HL-60(TB) leukemia
MDA-MB-435 = system: MDA-MB-435
ACHN renal = system: ACHN renal
IGROV1 ovarian = system: IGROV1 ovarian
SF-539 CNS = system: SF-539 CNS
NCI/ADR-RES ovarian = system: NCI/ADR-RES ovarian
KM12 colon = system: KM12 colon
MDA-MB-231 breast = system: MDA-MB-231 breast
A498 renal = system: A498 renal
HOP-62 NSCLC = system: HOP-62 NSCLC
NCI-H226 lung = system: NCI-H226 lung
CCRF-CEM leukemia = system: CCRF-CEM leukemia
786-0 renal = system: 786-0 renal
MALME-3M melanoma = system: MALME-3M melanoma
RPMI-8226 leukemia = system: RPMI-8226 leukemia
DU-145 prostate = system: DU-145 prostate
CAKI-1 renal = system: CAKI-1 renal
A549 NSCLC = system: A549 NSCLC
NCI-H460 lung = system: NCI-H460 lung
NCI-H522 lung = system: NCI-H522 lung
HCT-116 colon = system: HCT-116 colon
OVCAR-5 ovarian = system: OVCAR-5 ovarian
SK-MEL-5 melanoma = system: SK-MEL-5 melanoma

**Q.** What does the source list for `O=C(NCCc1ccccc1)Nc1ccc2cc3ccc(NC(=O)NCCc4ccccc4)cc3nc2c1`?
**A.** GI50 (SR leukemia): 0.392 µM; TGI (SR leukemia): 16 µM; GI50 (SNB-19 CNS): 1.4 µM; TGI (SNB-19 CNS): 2.97 µM; GI50 (SW-620 colon): 0.346 µM; TGI (SW-620 colon): 1.31 µM; GI50 (HCC-2998 colon): 0.447 µM; TGI (HCC-2998 colon): 1.68 µM; GI50 (UO-31 renal): > 100 µM; TGI (UO-31 renal): > 100 µM; GI50 (HT29 colon): 1.39 µM; TGI (HT29 colon): 3.56 µM; GI50 (EKVX NSCLC): 3.49 µM; TGI (EKVX NSCLC): 21.8 µM; GI50 (OVCAR-8 ovarian): 0.807 µM; TGI (OVCAR-8 ovarian): 2.7 µM; GI50 (OVCAR-3 ovarian): 1.04 µM; TGI (OVCAR-3 ovarian): 2.34 µM; GI50 (U251 CNS): 0.746 µM; TGI (U251 CNS): 2.16 µM; GI50 (SNB-75 CNS): 1.36 µM; TGI (SNB-75 CNS): 3.21 µM; GI50 (OVCAR-4 ovarian): 1.48 µM; TGI (OVCAR-4 ovarian): 3.48 µM; GI50 (COLO 205 colon): 0.318 µM; TGI (COLO 205 colon): 1.19 µM; GI50 (RXF 393 renal): 1.32 µM; TGI (RXF 393 renal): 6.49 µM; GI50 (NCI-H23 lung): 0.857 µM; TGI (NCI-H23 lung): 2.48 µM; GI50 (SN12C renal): 0.42 µM; TGI (SN12C renal): 1.6 µM; GI50 (K-562 leukemia): 0.392 µM; TGI (K-562 leukemia): 35.7 µM; GI50 (UACC-62 melanoma): 1.29 µM; TGI (UACC-62 melanoma): 2.74 µM; GI50 (TK-10 renal): 4.98 µM; TGI (TK-10 renal): 24.8 µM; GI50 (HCT-15 colon): > 100 µM; TGI (HCT-15 colon): > 100 µM; GI50 (BT-549 breast): 1.64 µM; TGI (BT-549 breast): 3.37 µM; GI50 (HOP-92 NSCLC): 1.47 µM; TGI (HOP-92 NSCLC): 3 µM; GI50 (SK-MEL-2 melanoma): 1.39 µM; TGI (SK-MEL-2 melanoma): 3 µM; GI50 (UACC-257 melanoma): 1.86 µM; TGI (UACC-257 melanoma): 4.07 µM; GI50 (PC-3 prostate): 1.63 µM; TGI (PC-3 prostate): 3.59 µM; GI50 (MCF7 breast): 0.29 µM; TGI (MCF7 breast): 1.2 µM; GI50 (SF-295 CNS): 1.94 µM; TGI (SF-295 CNS): 4.79 µM; GI50 (MOLT-4 leukemia): 0.258 µM; TGI (MOLT-4 leukemia): 0.697 µM; GI50 (SK-MEL-28 melanoma): 1.43 µM; TGI (SK-MEL-28 melanoma): 2.8 µM; GI50 (LOX IMVI melanoma): 0.202 µM; TGI (LOX IMVI melanoma): 0.445 µM; GI50 (HS 578T breast): 0.276 µM; TGI (HS 578T breast): 0.933 µM; GI50 (T-47D breast): 0.983 µM; TGI (T-47D breast): 2.31 µM; GI50 (SK-OV-3 ovarian): 1.51 µM; TGI (SK-OV-3 ovarian): 3 µM; GI50 (HL-60(TB) leukemia): 0.266 µM; TGI (HL-60(TB) leukemia): 0.774 µM; GI50 (MDA-MB-435): 0.813 µM; TGI (MDA-MB-435): 2.13 µM; GI50 (ACHN renal): 20.9 µM; TGI (ACHN renal): > 100 µM; GI50 (IGROV1 ovarian): 1.44 µM; TGI (IGROV1 ovarian): 3.97 µM; GI50 (SF-539 CNS): 1.33 µM; TGI (SF-539 CNS): 2.7 µM; GI50 (NCI/ADR-RES ovarian): > 100 µM; TGI (NCI/ADR-RES ovarian): > 100 µM; GI50 (KM12 colon): 1.64 µM; TGI (KM12 colon): 4.42 µM; GI50 (MDA-MB-231 breast): 1.35 µM; TGI (MDA-MB-231 breast): 2.75 µM; GI50 (A498 renal): 1.35 µM; TGI (A498 renal): 8.44 µM; GI50 (HOP-62 NSCLC): 1.55 µM; TGI (HOP-62 NSCLC): 3.75 µM; GI50 (NCI-H226 lung): 1.95 µM; TGI (NCI-H226 lung): 5.85 µM; GI50 (CCRF-CEM leukemia): 0.301 µM; TGI (CCRF-CEM leukemia): 0.945 µM; GI50 (786-0 renal): 2.07 µM; TGI (786-0 renal): 6.93 µM; GI50 (MALME-3M melanoma): 0.59 µM; TGI (MALME-3M melanoma): 1.97 µM; GI50 (RPMI-8226 leukemia): 2.24 µM; TGI (RPMI-8226 leukemia): 6.72 µM; GI50 (DU-145 prostate): 1.24 µM; TGI (DU-145 prostate): 2.76 µM; GI50 (CAKI-1 renal): 4.65 µM; TGI (CAKI-1 renal): > 100 µM; GI50 (A549 NSCLC): 3.16 µM; TGI (A549 NSCLC): 14.7 µM; GI50 (NCI-H460 lung): 1.27 µM; TGI (NCI-H460 lung): 3.57 µM; GI50 (NCI-H522 lung): 0.326 µM; TGI (NCI-H522 lung): 1.5 µM; GI50 (HCT-116 colon): 0.349 µM; TGI (HCT-116 colon): 1.29 µM; GI50 (OVCAR-5 ovarian): 2.03 µM; TGI (OVCAR-5 ovarian): 5.7 µM; GI50 (SK-MEL-5 melanoma): 1.5 µM; TGI (SK-MEL-5 melanoma): 3 µM
